Measured values reported in US20220175916A1, “METHODS AND COMPOSITIONS FOR TREATING CHRONIC EFFECTS OF RADIATION AND CHEMICAL EXPOSURE” (priority 2018, published 2022).

System: pancreatic cancer PANG-1 cell line
Assay: Fluorescence microscopy study of etoposide-induced senescence and anti-AGE antibody staining
Assay type: cell-based
Details: 12.5 μM for 24 hours
Description: Cells from the pancreatic cancer PANG-1 cell line were treated with 12.5 μM etoposide, a chemotherapeutic agent, for 24 hours to induce senescence. Control cells were treated with dimethyl sulfoxide (DMSO) vehicle for 24 hours. The cells were then stained with a senescence β-galactosidase staining kit, an anti-AGE antibody conjugated to green fluorescent protein (GFP) or an anti-AGE antibody conjugated to GFP and 4′,6-diamidino-2-phenylindole (DAPI). GFP-stained cells appear green and DAPI-stained cells appear blue under fluorescence microscopy.
FIG. 2A illustrates the untreated cells after staining with the senescence β-galactosidase staining kit. FIG. 2B illustrates the untreated cells after staining with the anti-AGE antibody conjugated to GFP. FIG. 2C illustrates the untreated cells after staining with the anti-AGE antibody conjugated to GFP-DAPI. FIGS. 2B and 2C have been brightened to enhance contrast. The untreated cells appear relatively uniform in size and shape and are densely packed.
FIG. 2D illustrates the etoposide-treated cells after staining with the senescence β-galactosidase staining kit. FIG. 2E illustrates the etoposide-treated cells after staining with the anti-AGE antibody conjugated to GFP. FIG. 2F illustrates the etoposide-treated cells after staining with the anti-AGE antibody conjugated to GFP-DAPI. FIGS. 2E and 2F have been brightened to enhance contrast.

COc1cc([C@@H]2c3cc4c(cc3[C@@H](O[C@@H]3O[C@@H]5CO[C@@H](C)O[C@H]5[C@H](O)[C@H]3O)[C@H]3COC(=O)[C@H]23)OCO4)cc(OC)c1O [etoposide]
Appearance of treated cells (senescence): irregular appearance, are larger in size and are loosely packed
